Assay results taken from PubChem BioAssay AID1590 (NINDS Approved Drug Screening Program, 2009).
Inconclusive results are not listed.

Tested on: PC12 inducible Htt-N63-148Q toxicity rescue
Assay: rescue from Htt-N63-148Q induced toxicity, dose response, PC12 cells, inducible expression, ROSShtt (AID 1590)

| SMILES | EC50 [nM] |
| --- | --- |
| C=C1c2c(Cl)ccc(O)c2C(O)=C2C(=O)[C@]3(O)C(O)=C(C(N)=O)C(=O)[C@@H](N(C)C)[C@@H]3[C@@H](O)[C@H]12 | 10 |
| CC(C)NCC(O)c1ccc(O)c(O)c1 (stereo unspecified) | 15000 |
| N[C@H](C(=O)O)[C@@H]1CC(Cl)=NO1 | 10000 |
| CCCNCC(O)COc1ccccc1C(=O)CCc1ccccc1 (stereo unspecified) | 10000 |
| CCN(Cc1ccncc1)C(=O)C(CO)c1ccccc1 (stereo unspecified) | 10 |
| C=C1c2cccc(O)c2C(O)=C2C(=O)[C@]3(O)C(O)=C(C(N)=O)C(=O)[C@@H](N(C)C)[C@@H]3[C@@H](O)[C@H]12 | 10 |
| CN(C)[C@@H]1C(=O)C(C(N)=O)=C(O)[C@@]2(O)C(=O)C3=C(O)c4c(O)ccc(Cl)c4[C@@H](O)[C@H]3C[C@@H]12 | 1000 |
| COc1c(C)c2c(c(O)c1C/C=C(\C)CCC(=O)O)C(=O)OC2 | 10000 |
| CN(C)[C@@H]1C(=O)C(C(N)=O)=C(O)[C@@]2(O)C(=O)C3=C(O)c4c(O)cccc4[C@@](C)(O)[C@H]3[C@H](O)[C@@H]12 | 1000 |
| CN(C)[C@@H]1C(=O)C(C(N)=O)=C(O)[C@@]2(O)C(=O)C3=C(O)c4c(O)cccc4[C@@](C)(O)[C@H]3C[C@@H]12 | 100 |
| O=C(O)C1CCCNC1 (stereo unspecified) | 10000 |
